Among the data in patent US20220213092A1, “BICYCLIC PYRAZOLE BRUTON'S TYROSINE KINASE INHIBITORS” (AbbVie Inc., priority 2020, published 2022) are IC50 values, retold here.

T1 sequence (Q06187 whole entry): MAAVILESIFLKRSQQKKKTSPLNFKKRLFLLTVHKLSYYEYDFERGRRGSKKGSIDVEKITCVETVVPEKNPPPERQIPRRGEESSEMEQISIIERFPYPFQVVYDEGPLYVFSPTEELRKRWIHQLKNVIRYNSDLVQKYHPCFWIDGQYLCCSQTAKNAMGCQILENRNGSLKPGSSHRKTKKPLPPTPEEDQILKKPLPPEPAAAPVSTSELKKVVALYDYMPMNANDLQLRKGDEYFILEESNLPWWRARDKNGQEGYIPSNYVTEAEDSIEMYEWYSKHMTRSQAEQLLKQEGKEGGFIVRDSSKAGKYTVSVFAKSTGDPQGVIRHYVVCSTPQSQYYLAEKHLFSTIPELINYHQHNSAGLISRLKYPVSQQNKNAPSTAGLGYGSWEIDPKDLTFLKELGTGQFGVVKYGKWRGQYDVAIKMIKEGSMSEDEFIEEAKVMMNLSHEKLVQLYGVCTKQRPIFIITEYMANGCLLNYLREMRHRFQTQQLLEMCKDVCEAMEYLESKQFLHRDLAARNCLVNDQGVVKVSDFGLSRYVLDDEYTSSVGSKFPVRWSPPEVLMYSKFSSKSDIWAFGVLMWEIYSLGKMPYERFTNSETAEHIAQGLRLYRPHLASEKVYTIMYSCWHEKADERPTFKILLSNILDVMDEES

This test has as its target T1, BTK (Homo sapiens, UniProt Q06187).
T1 construct: purchased Nanosyn, Santa Clara, Calif; host or cells: 293HEK
In words: BTK kinase electrophoretic mobility shift assay (MSA). The class given is biochemical. The following applies: 50 μM ATP, 0.5 nM BTK enzyme (Nanosyn-293HEK, WT), 3 hours at 25° C.; all examples except 50, 51, 62 and 63; read-out: BTK IC50. The protocol: Kinase activity, unless otherwise indicated, was measured in vitro using an electrophoretic mobility shift assay (MSA). The phosphorylation of a peptide substrate by BTK and other kinases was measured. The kinase reactions were assembled in a total volume of 25 μL per well in 384 well plates. The following was added to each well: compound buffer (or control); enzyme buffer; and substrate buffer, as further described below.
The terminated reactions were analyzed using a 12 channel LABCHIP® 3000 microfluidic detection instrument (available from Caliper Life Sciences, Waltham, Mass.). […] Change in the relative fluorescence intensity of the substrate and product peaks was the parameter measured, reflecting enzyme activity. In the presence of an inhibitor, the ratio between product and substrate was altered. The signal of the product decreased, while the signal of the substrate increased. Capillary electrophoregrams (RDA acquisition files) were analyzed using HTS Well Analyzer software (available from Caliper Life Sciences, Waltham, Mass.).
Activity in each sample was determined as the product to sum ratio (PSR): P/(S+P), where P was the peak height of the product peptide and S was the peak height of the substrate peptide. For each compound, enzyme activity was measured at various concentrations (12 concentrations of compound spaced by 3× dilution intervals). Negative control samples (00 inhibition in the absence of inhibitor) and positive control samples (10000 inhibition, in the presence of 20 mM EDTA) were assembled in replicates of four and were used to calculate 00 inhibition values for each inhibitor at each concentration. Percent inhibition (Pinh) was determined using following equation: Pinh=(PSR0%−PSRinh)/(PSR0%−PSR100%)*100, where PSRinh was the product sum ratio in the presence of inhibitor, PSR0% was the average product sum ratio in the absence of inhibitor and PSR100% was the average product sum ratio in 100%−inhibition control samples.
The IC50 values of inhibitors were determined by 4 parameter sigmoidal dose response model fitting of the inhibition curves (Pinh versus inhibitor concentration) using XLfit® 4 software (available from IDBS, Boston, Mass.).
Broadly, the IC50 is the concentration that inhibits the measured activity by half. Turning to `C=CC(=O)N1CCC(C2CCNc3c2nn(-c2ccc(Oc4ccccc4)cc2)c3C(N)=O)C1` (mixture of isomers) [Example 10, 2-(4-phenoxyphenyl)-7-[1-(prop-2-enoyl)pyrrolidin-3-yl]-4,5,6,7-tetrahydro-2H-pyrazolo[4,3-b]pyridine-3-carboxamide], the IC50 is 3.78 nM.
The result for `C=CC(=O)N1CCC[C@H]([C@@H]2CCNc3c2nn(-c2ccc(Oc4ccccc4)cc2)c3C(N)=O)C1` (racemic) [Example 8, (7SR)-2-(4-phenoxyphenyl)-7-[(3RS)-1-(prop-2-enoyl)piperidin-3-yl]-4,5,6,7-tetrahydro-2H-pyrazolo[4,3-b]pyridine-3-carboxamide] reads 4.7 nM; that for `C=CC(=O)N1CCC[C@@H]([C@@H]2CCNc3c2nn(-c2ccc(Oc4ccccc4)cc2)c3C(N)=O)C1` (racemic) [Example 9, (7RS)-2-(4-phenoxyphenyl)-7-[(3RS)-1-(prop-2-enoyl)piperidin-3-yl]-4,5,6,7-tetrahydro-2H-pyrazolo[4,3-b]pyridine-3-carboxamide], 13.8 nM.
In the case of `C=CC(=O)N1CCN([C@H]2CCNc3c2nn(-c2ccc(Oc4ccccc4)cc2)c3C(N)=O)[C@@H](C)C1` (single isomer, unassigned) [Example 31] it was 88.3 nM; in that of `C=CC(=O)N1CCN([C@@H]2CCNc3c2nn(-c2ccc(Oc4ccccc4)cc2)c3C(N)=O)[C@@H](C)C1` (single isomer, unassigned) [Example 32], 18.1 nM; in that of `CC#CC(=O)N1CCN([C@H]2CCNc3c2nn(-c2ccc(Oc4ccccc4)cc2)c3C(N)=O)CC1` (single isomer, unassigned) [Example 39], 5.8 nM.
The result for `CC#CC(=O)N1CCN([C@@H]2CCNc3c2nn(-c2ccc(Oc4ccccc4)cc2)c3C(N)=O)CC1` (single isomer, unassigned) [Example 40] reads 48.6 nM; that for `CC#CC(=O)N1CCC(C2CCNc3c2nn(-c2ccc(Oc4ccccc4)cc2)c3C(N)=O)CC1` (centres unmarked) [Example 2, 7-[1-(but-2-ynoyl)piperidin-4-yl]-2-(4-phenoxyphenyl)-4,5,6,7-tetrahydro-2H-pyrazolo[4,3-b]pyridine-3-carboxamide], 4.07 nM.
For `C=CC(=O)N1CCC([C@@H]2CCNc3c2nn(-c2ccc(Oc4ccccc4)cc2)c3C(N)=O)CC1` [Example 5, (7S)-2-(4-phenoxyphenyl)-7-[1-(prop-2-enoyl)piperidin-4-yl]-4,5,6,7-tetrahydro-2H-pyrazolo[4,3-b]pyridine-3-carboxamide], the half-inhibitory concentration (IC50) amounted to 10.5 nM.
Consider `C=CC(=O)N1CCN([C@H]2CCNc3c2nn(-c2ccc(Oc4ccccc4)cc2)c3C(N)=O)CC1` [Example 7, (7S)-2-(4-phenoxyphenyl)-7-[4-(prop-2-enoyl)piperazin-1-yl]-4,5,6,7-tetrahydro-2H-pyrazolo[4,3-b]pyridine-3-carboxamide], for which the IC50 stood at 11.5 nM.
In the case of `C=CC(=O)N1CCC(C2CCNc3c2nn(-c2ccc(Oc4ccc(F)cc4)cc2)c3C(N)=O)CC1` (centres unmarked) [Example 11, 2-[4-(4-fluorophenoxy)phenyl]-7-[1-(prop-2-enoyl)piperidin-4-yl]-4,5,6,7-tetrahydro-2H-pyrazolo[4,3-b]pyridine-3-carboxamide] it was 2.25 nM.
In the case of `C=CC(=O)N1CCC(C2CCNc3c2nn(-c2ccc(Oc4ccc(F)cc4F)cc2)c3C(N)=O)CC1` (centres unmarked) [Example 13, 2-[4-(2,4-difluorophenoxy)phenyl]-7-[1-(prop-2-enoyl)piperidin-4-yl]-4,5,6,7-tetrahydro-2H-pyrazolo[4,3-b]pyridine-3-carboxamide] it was 1.84 nM; in that of `C=CC(=O)N1CCC(C2CCNc3c2nn(-c2ccc(Oc4ccccc4)cc2OC)c3C(N)=O)CC1` (centres unmarked) [Example 14, 2-(2-methoxy-4-phenoxyphenyl)-7-[1-(prop-2-enoyl)piperidin-4-yl]-4,5,6,7-tetrahydro-2H-pyrazolo[4,3-b]pyridine-3-carboxamide], 37.5 nM; in that of `C=CC(=O)N1CCC(C2CCNc3c2nn(-c2ccc(Oc4ccc(OC)cc4)cc2)c3C(N)=O)CC1` (centres unmarked) [Example 17, 2-[4-(4-methoxyphenoxy)phenyl]-7-[1-(prop-2-enoyl)piperidin-4-yl]-4,5,6,7-tetrahydro-2H-pyrazolo[4,3-b]pyridine-3-carboxamide], 2.72 nM.
As to `C=CC(=O)N1C[C@H](C)N(C2CCNc3c2nn(-c2ccc(Oc4ccccc4)cc2)c3C(N)=O)C[C@H]1C` (stereo partly drawn) [Example 18, 7-[(2S,5R)-2,5-dimethyl-4-(prop-2-enoyl)piperazin-1-yl]-2-(4-phenoxyphenyl)-4,5,6,7-tetrahydro-2H-pyrazolo[4,3-b]pyridine-3-carboxamide], the IC50 came out at 678 nM.
The result for `CC#CC(=O)N1CCC(N2CCNc3c2nn(-c2ccc(Oc4ccccc4)cc2)c3C(N)=O)CC1` [Example 19, 7-[1-(but-2-ynoyl)piperidin-4-yl]-2-(4-phenoxyphenyl)-4,5,6,7-tetrahydro-2H-pyrazolo[3,4-b]pyrazine-3-carboxamide] reads 8.61 nM; that for `C=CC(=O)N1CCN(C2CCNc3c2nn(-c2ccc(Oc4ccccc4)cc2)c3C(N)=O)C[C@H]1C(C)C` (stereo partly drawn) [Example 20, 2-(4-phenoxyphenyl)-7-[(3R)-3-(propan-2-yl)-4-(prop-2-enoyl)piperazin-1-yl]-4,5,6,7-tetrahydro-2H-pyrazolo[4,3-b]pyridine-3-carboxamide], 3.17 nM.
On to `C=CC(=O)N1C[C@@H](C)N(C2CCNc3c2nn(-c2ccc(Oc4ccccc4)cc2)c3C(N)=O)C[C@@H]1C` (stereo partly drawn) [Example 21, 7-[(2R,5S)-2,5-dimethyl-4-(prop-2-enoyl)piperazin-1-yl]-2-(4-phenoxyphenyl)-4,5,6,7-tetrahydro-2H-pyrazolo[4,3-b]pyridine-3-carboxamide], for which the IC50 turned out to be 919 nM.
The result for `C=CC(=O)N1CCC(C2CCNc3c2nn(-c2ccc(Oc4cccc(C(F)(F)F)c4)cc2)c3C(N)=O)CC1` (centres unmarked) [Example 23, 7-[1-(prop-2-enoyl)piperidin-4-yl]-2-{4-[3-(trifluoromethyl)phenoxy]phenyl}-4,5,6,7-tetrahydro-2H-pyrazolo[4,3-b]pyridine-3-carboxamide] reads 2.03 nM; that for `C=CC(=O)N1CCCN(C2CCNc3c2nn(-c2ccc(Oc4ccccc4)cc2)c3C(N)=O)CC1` (centres unmarked) [Example 25, trifluoroacetic acid-2-(4-phenoxyphenyl)-7-[4-(prop-2-enoyl)-1,4-diazepan-1-yl]-4,5,6,7-tetrahydro-2H-pyrazolo[4,3-b]pyridine-3-carboxamide (1/1)], 29.4 nM.
For `C=CC(=O)N1CCN(C2CCNc3c2nn(-c2ccc(Oc4ccccc4)cc2)c3C(N)=O)CC12CCC2` (centres unmarked) [Example 26, 2-(4-phenoxyphenyl)-7-[5-(prop-2-enoyl)-5,8-diazaspiro[3.5]nonan-8-yl]-4,5,6,7-tetrahydro-2H-pyrazolo[4,3-b]pyridine-3-carboxamide], the IC50 was 2.16 nM.
The result for `CC#CC(=O)N1CCN(C2CCNc3c2nn(-c2ccc(Oc4ccccc4)cc2)c3C(N)=O)CC1` (centres unmarked) [Example 27, 7-[4-(but-2-ynoyl)piperazin-1-yl]-2-(4-phenoxyphenyl)-4,5,6,7-tetrahydro-2H-pyrazolo[4,3-b]pyridine-3-carboxamide] reads 126 nM; that for `C=CC(=O)N1CCC(C2CCNc3c2nn(-c2ccc(Oc4ccc(Cl)cc4)cc2)c3C(N)=O)CC1` (centres unmarked) [Example 28, 2-[4-(4-chlorophenoxy)phenyl]-7-[1-(prop-2-enoyl)piperidin-4-yl]-4,5,6,7-tetrahydro-2H-pyrazolo[4,3-b]pyridine-3-carboxamide], 4.66 nM.
In the case of `C=CC(=O)N1CCC([C@@H]2CCNc3c2nn(-c2ccc(Oc4ccc(F)cc4F)cc2)c3C(N)=O)CC1` [Example 29, (7S)-2-[4-(2,4-difluorophenoxy)phenyl]-7-[1-(prop-2-enoyl)piperidin-4-yl]-4,5,6,7-tetrahydro-2H-pyrazolo[4,3-b]pyridine-3-carboxamide] it was 24.2 nM.
The result for `C=CC(=O)N1C[C@H]2C[C@@H]1CN2C1CCNc2c1nn(-c1ccc(Oc3ccccc3)cc1)c2C(N)=O` (stereo partly drawn) [Example 33, 2-(4-phenoxyphenyl)-7-[(1R,4R)-5-(prop-2-enoyl)-2,5-diazabicyclo[2.2.1]heptan-2-yl]-4,5,6,7-tetrahydro-2H-pyrazolo[4,3-b]pyridine-3-carboxamide] reads 24.8 nM.
With `C=CC(=O)N1C[C@@H]2C[C@H]1CN2C1CCNc2c1nn(-c1ccc(Oc3ccccc3)cc1)c2C(N)=O` (stereo partly drawn) [Example 34, 2-(4-phenoxyphenyl)-7-[(1S,4S)-5-(prop-2-enoyl)-2,5-diazabicyclo[2.2.1]heptan-2-yl]-4,5,6,7-tetrahydro-2H-pyrazolo[4,3-b]pyridine-3-carboxamide], the IC50 amounted to 12.5 nM.
